In ChEMBL document CHEMBL1201862, “PubChem BioAssay data set” (2004):
Active and inactive are the calls of the source.

Key:
[1] = target: Intestinal-type alkaline phosphatase (Homo sapiens, UniProt P09923); assay: inhibition of human intestinal alkaline phosphatase – biochemical, dose response (AID 488876); type: functional
Exodeoxyribonuclease V = target: T1, Exodeoxyribonuclease V (Escherichia coli (strain K12), UniProt P04993+P07648+P08394); assay: RecBCD inhibition via phage-restricted bacterial growth – absorbance, V66 E. coli, mutant T4 phage, counter-screen for AddAB inhibitor project, dose response (AID 492957); type: functional, cell-based, Escherichia coli str. K-12 substr. MG1655
T1 sequence (P04993 whole entry): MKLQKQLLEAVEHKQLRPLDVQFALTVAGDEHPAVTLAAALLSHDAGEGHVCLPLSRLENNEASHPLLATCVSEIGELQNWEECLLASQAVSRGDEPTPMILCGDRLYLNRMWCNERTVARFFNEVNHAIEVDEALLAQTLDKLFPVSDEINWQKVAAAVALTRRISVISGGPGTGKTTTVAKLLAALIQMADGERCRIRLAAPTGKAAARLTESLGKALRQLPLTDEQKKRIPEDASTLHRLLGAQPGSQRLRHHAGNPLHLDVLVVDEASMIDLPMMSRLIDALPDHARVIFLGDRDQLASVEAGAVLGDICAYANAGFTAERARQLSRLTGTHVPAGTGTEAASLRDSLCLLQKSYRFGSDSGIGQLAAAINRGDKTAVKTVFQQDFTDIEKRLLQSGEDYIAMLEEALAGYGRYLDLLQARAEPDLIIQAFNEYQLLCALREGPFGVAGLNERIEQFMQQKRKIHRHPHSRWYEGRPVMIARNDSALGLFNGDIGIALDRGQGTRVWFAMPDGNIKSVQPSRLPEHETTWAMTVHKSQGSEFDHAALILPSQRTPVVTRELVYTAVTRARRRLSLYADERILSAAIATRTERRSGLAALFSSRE
T1 sequence (P07648 whole entry): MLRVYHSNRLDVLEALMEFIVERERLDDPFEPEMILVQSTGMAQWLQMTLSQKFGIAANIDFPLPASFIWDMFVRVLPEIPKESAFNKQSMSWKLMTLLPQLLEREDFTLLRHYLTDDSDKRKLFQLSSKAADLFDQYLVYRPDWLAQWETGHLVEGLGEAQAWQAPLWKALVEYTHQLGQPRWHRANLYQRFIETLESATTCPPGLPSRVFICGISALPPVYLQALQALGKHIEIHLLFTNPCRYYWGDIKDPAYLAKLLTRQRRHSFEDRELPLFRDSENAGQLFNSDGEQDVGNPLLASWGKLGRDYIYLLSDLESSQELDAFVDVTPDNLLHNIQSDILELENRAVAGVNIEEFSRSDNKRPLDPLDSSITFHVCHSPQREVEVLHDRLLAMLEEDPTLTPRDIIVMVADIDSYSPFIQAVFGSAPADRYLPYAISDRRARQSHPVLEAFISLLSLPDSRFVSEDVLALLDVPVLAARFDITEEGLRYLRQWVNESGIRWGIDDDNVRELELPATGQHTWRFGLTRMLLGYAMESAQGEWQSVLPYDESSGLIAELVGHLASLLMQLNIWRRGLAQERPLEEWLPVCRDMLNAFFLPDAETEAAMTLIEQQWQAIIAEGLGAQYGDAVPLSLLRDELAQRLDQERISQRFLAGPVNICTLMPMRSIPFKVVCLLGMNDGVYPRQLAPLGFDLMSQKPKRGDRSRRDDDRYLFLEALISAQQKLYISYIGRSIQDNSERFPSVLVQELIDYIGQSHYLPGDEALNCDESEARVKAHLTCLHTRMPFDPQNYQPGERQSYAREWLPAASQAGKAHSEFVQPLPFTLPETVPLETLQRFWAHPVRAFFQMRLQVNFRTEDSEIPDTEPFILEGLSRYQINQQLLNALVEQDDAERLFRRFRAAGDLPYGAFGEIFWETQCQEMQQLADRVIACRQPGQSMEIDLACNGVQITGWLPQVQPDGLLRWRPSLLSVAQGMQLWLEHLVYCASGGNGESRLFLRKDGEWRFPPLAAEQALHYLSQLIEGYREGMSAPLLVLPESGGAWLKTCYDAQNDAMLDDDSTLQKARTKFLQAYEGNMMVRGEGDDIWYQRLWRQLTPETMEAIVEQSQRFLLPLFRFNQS
T1 sequence (P08394 whole entry): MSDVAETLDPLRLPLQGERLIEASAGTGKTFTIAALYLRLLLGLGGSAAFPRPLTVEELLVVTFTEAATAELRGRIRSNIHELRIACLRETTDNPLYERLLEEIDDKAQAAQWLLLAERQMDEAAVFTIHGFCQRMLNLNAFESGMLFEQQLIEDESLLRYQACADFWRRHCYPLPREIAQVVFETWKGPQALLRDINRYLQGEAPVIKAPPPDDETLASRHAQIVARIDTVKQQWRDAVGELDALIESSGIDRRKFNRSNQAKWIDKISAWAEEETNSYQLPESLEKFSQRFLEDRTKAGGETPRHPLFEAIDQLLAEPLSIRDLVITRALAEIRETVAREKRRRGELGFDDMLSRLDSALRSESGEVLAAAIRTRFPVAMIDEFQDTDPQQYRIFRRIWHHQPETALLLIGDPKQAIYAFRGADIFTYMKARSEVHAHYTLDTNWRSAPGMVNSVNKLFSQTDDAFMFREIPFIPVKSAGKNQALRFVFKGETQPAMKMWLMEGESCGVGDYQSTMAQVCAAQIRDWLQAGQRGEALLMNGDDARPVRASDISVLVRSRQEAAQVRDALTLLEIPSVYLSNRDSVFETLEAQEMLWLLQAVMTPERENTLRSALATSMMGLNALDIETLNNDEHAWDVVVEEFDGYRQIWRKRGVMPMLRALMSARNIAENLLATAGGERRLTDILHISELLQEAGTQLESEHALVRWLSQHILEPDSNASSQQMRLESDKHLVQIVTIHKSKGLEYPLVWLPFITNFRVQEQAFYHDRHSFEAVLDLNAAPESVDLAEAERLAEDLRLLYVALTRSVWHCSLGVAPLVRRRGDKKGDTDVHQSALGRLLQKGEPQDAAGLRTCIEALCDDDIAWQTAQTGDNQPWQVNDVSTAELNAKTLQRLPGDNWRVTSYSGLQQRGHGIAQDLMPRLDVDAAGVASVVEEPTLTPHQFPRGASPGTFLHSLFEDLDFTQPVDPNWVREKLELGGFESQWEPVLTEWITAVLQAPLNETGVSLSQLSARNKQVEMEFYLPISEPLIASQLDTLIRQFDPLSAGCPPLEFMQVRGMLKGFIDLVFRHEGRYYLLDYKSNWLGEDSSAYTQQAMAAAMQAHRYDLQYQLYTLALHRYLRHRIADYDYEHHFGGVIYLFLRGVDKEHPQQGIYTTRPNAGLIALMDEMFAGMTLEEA

Intestinal-type alkaline phosphatase, sequence (P09923 whole entry): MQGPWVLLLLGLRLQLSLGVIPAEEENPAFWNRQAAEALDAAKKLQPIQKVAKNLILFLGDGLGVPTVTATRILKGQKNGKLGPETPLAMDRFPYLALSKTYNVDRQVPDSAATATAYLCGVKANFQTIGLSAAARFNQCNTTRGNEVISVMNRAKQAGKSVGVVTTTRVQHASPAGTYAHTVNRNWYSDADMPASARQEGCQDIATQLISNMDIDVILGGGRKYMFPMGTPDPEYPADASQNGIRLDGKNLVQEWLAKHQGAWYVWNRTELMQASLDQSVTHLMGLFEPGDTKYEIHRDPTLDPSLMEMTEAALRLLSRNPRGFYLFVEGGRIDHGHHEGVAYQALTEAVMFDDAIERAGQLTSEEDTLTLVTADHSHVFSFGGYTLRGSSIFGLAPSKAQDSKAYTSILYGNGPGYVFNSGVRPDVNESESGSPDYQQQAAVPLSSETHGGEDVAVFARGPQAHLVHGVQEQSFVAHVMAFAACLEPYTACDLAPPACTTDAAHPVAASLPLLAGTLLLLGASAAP

Compound	IC50 [1]	IC50 (Exodeoxyribonuclease V)
O=C(O)CC(C(=O)O)N1C(=O)/C(=C/C=C/c2ccco2)SC1=S (configuration not stated)	> 100 µM (inactive)	
CCCC(=O)NC(c1cccs1)c1cc(Cl)c2cccnc2c1O (configuration not stated)		> 119 µM (inactive)
